Assay results reported in patent US20150024955A1, “Methods of Identifying Modulators of Dephosphorylation of Histone Deacetylase” (THE J. DAVID GLADSTONE INSTITUTES, priority 2006, published 2015).

Legend:
[1] = test system: HDAC7 (Ser155, Ser318, Ser448 phosphorylation); test: HDAC7 phosphorylation by Western blot with antiphospho-HDAC7 antisera in DO11.10-HDAC7-Flag cells; type: cell-based, human
Method: DO11.10-HDAC7-Flag cells were untreated or treated with either PMA or anti CD3 antibody for the indicated times. Total cellular extracts were prepared in 20 mM Hepes (pH 7.5), 10 mM EGTA, 22.5 mM MgCl2, 1% NP-40, 2 mM orthovanadate, 1 mM dithiothreitol, and 0.5 mM phenyl-methyl sulfonyl fluoride supplemented with protease inhibitors, and subjected to Western blot analysis.
Antibodies against mouse HDAC7 phosphorylated at serine residues 178, 344 and 479 were generated (Sigma Genosys, INC., Houston Tex. 77216-1508, USA). Briefly, rabbits were immunized with KLH-conjugated peptides. The phosphopeptides used to generate the phosphor-specific antibodies were FPLRTV[pSer]EPNLKL for P-Ser178, RPLNRTR[pSer]EPLPPS for P-Ser344 and RPLSRTQ[pSer]SPAAPV for P-Ser479. [pSer] indicates the phosphate group on the conserved serine residues. HDAC7 phospho specific antibodies were purified from crude rabbit serum by double affinity purification with nonphosphorylated and phosphorylated peptide. The corresponding serine residues can be found in human HDAC7 at amino acid positions 155, 318, and 448, respectively.
Using these antisera, the state of phosphorylation of HDAC7 following PMA treatment was assessed. […] Phosphatase treatment of immunoprecipitated HDAC7 abolished the reactivity of the different phosphor-HDAC7 antibodies confirming their specificity for phosphorylated HDAC7 (FIG. 6A).
To test the possibility that HDAC7 became dephosphorylated by a phosphatase, cells were stimulated with PMA followed by the addition of okadaic acid, a phosphatase inhibitor, for the rest of the time course. Consistent with the hypothesis that HDAC7 is dephosphorylated by a phosphatase, okadaic acid treatment led to persistent phosphorylation of HDAC7 at each site up to 24 h (FIG. 6B).
To further probe the role of myosin phosphatase in the dephosphorylation of HDAC7 in vivo, small interfering RNAs (siRNAs) specific for PP1β and MYPT1 were introduced into DO11.10 cells expressing HDAC7. With an siRNA control (siCo), HDAC7 was transiently phosphorylated in response to PMA, with a peak at 2 h, and rapidly dephosphorylated thereafter (FIG. 11B, left panel). […] Further, HDAC7 remained phosphorylated up to 8 h after PMA stimulation (FIG. 11B, right panel).

[2] = test system: HDAC7-GFP; test: HDAC7-GFP subcellular localization by immunofluorescence microscopy in DO11.10 cells; type: cell-based
Method: DO11.10 cells (5×10^6) were nucleofected with an HDAC7-GFP expression vector together with either siRNA control or siRNAs for PP1β and MYPT1. Cells ([…]) were seeded onto poly-L-lysine-coated coverslips 12 h after nucleofection and allowed to attach for 12 h. Cells were stimulated with 10 ng/ml PMA. HDAC7 was localized by immunofluorescence microscopy with a confocal fluorescence microscope (Olympus BX60, Bio-Rad).
To determine whether the changes in HDAC7 phosphorylation affected the subcellular localization of the protein, the fate of an HDAC7-GFP fusion protein in response to PMA was followed. […] The subcellular localization of HDAC7 also closely paralleled serine 155, serine 318, and serine 448 phosphorylation. While resting cells […] nuclear exclusion of HDAC7, more than 75% of activated cells excluded HDAC7 from the nucleus at 2 hours after stimulation (FIG. 7A). However, this exclusion was transient and HDAC7 progressively returned to the nucleus over the next few hours (FIGS. 7A, 7B). Significant reimport of HDAC7-GFP into the nucleus occurred at 4 h after PMA treatment, a time course that paralleled HDAC7 dephosphorylation (FIGS. 7A, 7B). […] Phosphatases have been predicted to regulate the nucleo-cytoplasmic shuttling of other class IIa HDAC, such as HDAC4, 5, and 9 for some time but have not been identified so far. […]

[3] = test system: Nur77; test: Nur77 expression by Western blot in DO11.10 cells; details: after PMA treatment
Method: SDS-PAGE and Western blot analysis were performed according to standard procedures. Western blots were developed with the ECL detection kit (Amersham Pharmacia Biotech, Piscataway, N.J.).

| SMILES | HDAC7 phosphorylation at each serine after treatment ([1]; DO11.10 stably expressing HDAC7-Flag, Western blot of immunoprecipitated HDAC7) | start of progressive decrease in HDAC7 phosphorylation after treatment ([1]; all three serine residues, total HDAC7 content unchanged) [h] | time of maximum (full) HDAC7 phosphorylation after stimulation ([1]; time course, DO11.10-HDAC7-Flag cells) [h] | percentage of cells excluding HDAC7 from the nucleus ([2]; 2 hours after stimulation) | percentage of cells showing nuclear exclusion of HDAC7 ([2]; 24 hours after stimulation) [%] | time of peak Nur77 induction [3] [h] | time up to which HDAC7 remained phosphorylated after PMA stimulation ([1]; agent applied together with PMA stimulation, DO11.10-HDAC7-Flag cells) |
| --- | --- | --- | --- | --- | --- | --- | --- |
| CCCCCCCCCCCCCC(=O)O[C@@H]1[C@@H](C)[C@@]2(O)[C@@H](C=C(CO)C[C@]3(O)C(=O)C(C)=C[C@@H]23)[C@@H]2C(C)(C)[C@]12OC(C)=O [PMA] | increased HDAC7 phosphorylation at each serine | 4 | 1 to 2 | more than 75% | < 20 | 2 |  |
| C=C1[C@@H](O)[C@@H]2O[C@]3(CC[C@H](/C=C/[C@@H](C)[C@@H]4CC(C)=C[C@@]5(O[C@H](C[C@@](C)(O)C(=O)O)CC[C@H]5O)O4)O3)CC[C@H]2O[C@@H]1[C@@H](O)C[C@H](C)[C@H]1O[C@@]2(CCCCO2)CC[C@H]1C [okadaic acid] |  |  |  |  |  |  | up to 24 h |
